According to PubChem BioAssay AID248 (DTP/NCI, 2004):
Where “and” joins values, the source holds several entries; their conditions need not be identical. Identical values can stand only once. Toxic doses and inconclusive results are not listed.

Tested on: L1210 leukemia ip in BDF1 mice, survival T/C
Experiment: NCI In Vivo Anticancer Drug Screen. Data for tumor model L1210 Leukemia (intraperitoneal) in B6D2F1 (BDF1) mice
Conditions: endpoint: mean survival time, higher = longer survival
Outline: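 Each compound was tested against a transplantable tumor grown in mice. The endpoint was survival, with treated animals benchmarked against vehicle controls as a simple ratio.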

[1] = dose: 50.0 mg/kg/injection, schedule: Q01DX009 (ip), vehicle: Klucel (hydroxypropylcellulose) (HPC)
[2] = dose: 100.0 mg/kg/injection, schedule: Q01DX001 (ip), vehicle: saline
[3] = dose: 100.0 mg/kg/injection, schedule: Q01DX009 (ip), vehicle: Klucel (hydroxypropylcellulose) (HPC)
[4] = dose: 100.0 mg/kg/injection, schedule: Q01DX009 (ip), vehicle: saline
[5] = dose: 100.0 mg/kg/injection, schedule: Q04DX003 (ip), vehicle: saline
[6] = dose: 200.0 mg/kg/injection, schedule: Q01DX001 (ip), vehicle: saline
[7] = dose: 200.0 mg/kg/injection, schedule: Q01DX009 (ip), vehicle: Klucel (hydroxypropylcellulose) (HPC)
[8] = dose: 400.0 mg/kg/injection, schedule: Q01DX009 (ip), vehicle: Klucel (hydroxypropylcellulose) (HPC)
[9] = dose: 100.0 mg/kg/injection, schedule: Q01DX009 (ip), vehicle: saline with Tween-80
[10] = dose: 50.0 mg/kg/injection, schedule: Q01DX009 (ip), vehicle: saline
[11] = dose: 200.0 mg/kg/injection, schedule: Q01DX009 (ip), vehicle: saline
[12] = dose: 200.0 mg/kg/injection, schedule: Q04DX003 (ip), vehicle: saline
[13] = dose: 12.5 mg/kg/injection, schedule: Q01DX009 (ip), vehicle: saline
[14] = dose: 25.0 mg/kg/injection, schedule: Q01DX009 (ip), vehicle: saline
[15] = dose: 50.0 mg/kg/injection, schedule: Q01DX001 (ip), vehicle: saline
[16] = dose: 400.0 mg/kg/injection, schedule: Q01DX001 (ip), vehicle: saline
[17] = dose: 100.0 mg/kg/injection, schedule: Q04DX003 (ip), vehicle: saline with Tween-80
[18] = dose: 200.0 mg/kg/injection, schedule: Q01DX009 (ip), vehicle: saline with Tween-80
[19] = dose: 200.0 mg/kg/injection, schedule: Q04DX003 (ip), vehicle: saline with Tween-80
[20] = dose: 400.0 mg/kg/injection, schedule: Q01DX009 (ip), vehicle: saline with Tween-80

Nc1nc(Cl)nc2c1ncn2C1OC(CO)C(O)C1O (configuration not stated)
T/C (dose: 25.0 mg/kg/injection, schedule: Q01DX009 (ip), vehicle: Klucel (hydroxypropylcellulose) (HPC)): 102 % of control | T/C (dose: 37.5 mg/kg/injection, schedule: Q01DX009 (ip), vehicle: saline with Tween-80): 113 % of control | T/C (dose: 50.0 mg/kg/injection, schedule: Q01DX001 (ip), vehicle: carboxymethylcellulose (CMC)): 93 % of control | T/C [1]: 114 % of control | T/C (dose: 50.0 mg/kg/injection, schedule: Q04DX003 (ip), vehicle: saline): 108 % of control | T/C (dose: 100.0 mg/kg/injection, schedule: Q01DX001 (ip), vehicle: carboxymethylcellulose (CMC)): 96 % of control | T/C [2]: 92 % of control | T/C [3]: 123 % of control | T/C [4]: 156 % of control | T/C [5]: 113 % of control | T/C (dose: 200.0 mg/kg/injection, schedule: Q01DX001 (ip), vehicle: carboxymethylcellulose (CMC)): 98 % of control | T/C [6]: 103 % of control | T/C (dose: 225.0 mg/kg/injection, schedule: Q01DX009 (ip), vehicle: saline): 121 % of control | T/C (dose: 300.0 mg/kg/injection, schedule: Q04DX003 (ip), vehicle: saline): 153 % of control | T/C (dose: 400.0 mg/kg/injection, schedule: Q01DX001 (ip), vehicle: carboxymethylcellulose (CMC)): 118 % of control

Cc1ccc(C(=O)C(O)c2ccc(C)cc2)cc1 (configuration not stated)
T/C [3]: 98 % of control | T/C [7]: 101 % of control | T/C [8]: 98 % of control

Nc1cccc(Cl)c1
T/C (dose: 25.0 mg/kg/injection, schedule: Q01DX009 (ip), vehicle: saline with Tween-80): 92 % of control | T/C (dose: 50.0 mg/kg/injection, schedule: Q01DX009 (ip), vehicle: saline with Tween-80): 92 % of control | T/C [9]: 95 % of control | T/C (dose: 100.0 mg/kg/injection, schedule: Q04DX003 (ip), vehicle: Klucel (hydroxypropylcellulose) (HPC)): 95 % of control | T/C (dose: 200.0 mg/kg/injection, schedule: Q04DX003 (ip), vehicle: Klucel (hydroxypropylcellulose) (HPC)): 90 % of control

O=S1(=O)N2CN3CN(C2)CN1C3
T/C (dose: 100.0 mg/kg/injection, schedule: Q01DX001 (ip), vehicle: Klucel (hydroxypropylcellulose) (HPC)): 94 % of control | T/C [3]: 97 % of control | T/C (dose: 200.0 mg/kg/injection, schedule: Q01DX001 (ip), vehicle: Klucel (hydroxypropylcellulose) (HPC)): 102 % of control | T/C [7]: 100 % of control | T/C (dose: 400.0 mg/kg/injection, schedule: Q01DX001 (ip), vehicle: Klucel (hydroxypropylcellulose) (HPC)): 104 % of control

Cn1cc(C=O)c2nccnc21
T/C [10]: 98 % of control | T/C [4]: 95 % of control | T/C [5]: 100 % of control | T/C [11]: 98 % of control | T/C [12]: 100 % of control

COC(=O)CCCCCCCC(=O)O
T/C [3]: 94 % of control | T/C [7]: 98 % of control | T/C [8]: 102 % of control

COc1ccc2c(c1)c(C)cc[n+]2C
T/C (dose: 12.5 mg/kg/injection, schedule: Q01DX001 (ip), vehicle: saline): 108 % of control | T/C [13]: 109 % of control | T/C (dose: 25.0 mg/kg/injection, schedule: Q01DX001 (ip), vehicle: saline): 110 % of control | T/C [14]: 107 % of control | T/C [15]: 110 % of control | T/C [10]: 124 % of control

CCN(CC)c1ccc(/C=C(/S)C(=O)O)cc1
T/C [2]: 89 % of control | T/C [6]: 92 % of control | T/C [16]: 92 % of control

COC(=O)N1c2ccccc2C=C(NC(C)=O)C1C#N (configuration not stated)
T/C [9]: 117 % of control | T/C [17]: 103 % of control | T/C [18]: 98 % of control | T/C [19]: 95 % of control | T/C [20]: 98 % of control | T/C (dose: 400.0 mg/kg/injection, schedule: Q04DX003 (ip), vehicle: saline with Tween-80): 94 % of control

O=NN(CCCl)C(=O)N[C@H]1CCC[C@@H](C(=O)O)C1
T/C (dose: 18.0 mg/kg/injection, schedule: Q01DX001 (ip), vehicle: Klucel (hydroxypropylcellulose) (HPC)): 353 % of control | T/C (dose: 26.0 mg/kg/injection, schedule: Q01DX001 (ip), vehicle: Klucel (hydroxypropylcellulose) (HPC)): 426 % of control | T/C (dose: 40.0 mg/kg/injection, schedule: Q01DX001 (ip), vehicle: Klucel (hydroxypropylcellulose) (HPC)): 275 % of control | T/C (dose: 60.0 mg/kg/injection, schedule: Q01DX001 (ip), vehicle: Klucel (hydroxypropylcellulose) (HPC)): 216 % of control

CCOC(=O)N1C(=O)NC(=O)C1c1ccccc1 (configuration not stated)
T/C [15]: 97 % of control | T/C [2]: 115 % of control | T/C [6]: 97 % of control

CC(=Nc1cc(C)ccc1C)c1c(O)cc(C)oc1=O
T/C [3]: 97 % of control | T/C [7]: 97 % of control | T/C [8]: 103 % of control

CCCCC#CC(=O)OCCC
T/C [17]: 94 % of control | T/C [19]: 99 % of control

O=C(OC(c1ccccc1)(C(F)(F)F)C(F)(F)F)c1ccccc1Sc1ccccc1
T/C [9]: 95 % of control | T/C [18]: 101 % of control | T/C [20]: 98 % of control

CSC(c1ccccc1F)=[N+]1CCCCC1
T/C (dose: 5.0 mg/kg/injection, schedule: Q01DX001 (ip), vehicle: saline): 100 % of control | T/C (dose: 10.0 mg/kg/injection, schedule: Q01DX001 (ip), vehicle: saline): 96 % of control | T/C (dose: 20.0 mg/kg/injection, schedule: Q01DX001 (ip), vehicle: saline): 95 % of control

O=S(=O)(Cc1ccccc1)SSS(=O)(=O)Cc1ccccc1
T/C (dose: 75.0 mg/kg/injection, schedule: Q01DX001 (ip), vehicle: saline): 98 % of control | T/C (dose: 150.0 mg/kg/injection, schedule: Q01DX001 (ip), vehicle: saline): 106 % of control | T/C (dose: 300.0 mg/kg/injection, schedule: Q01DX001 (ip), vehicle: saline): 95 % of control

CN(C)C(=O)Oc1c(Cl)c(Cl)c(OC(=O)N(C)C)c(Cl)c1Cl
T/C (dose: 100.0 mg/kg/injection, schedule: Q04DX002 (ip), vehicle: Klucel (hydroxypropylcellulose) (HPC)): 94 % of control | T/C (dose: 200.0 mg/kg/injection, schedule: Q04DX002 (ip), vehicle: Klucel (hydroxypropylcellulose) (HPC)): 105 % of control | T/C (dose: 400.0 mg/kg/injection, schedule: Q04DX002 (ip), vehicle: Klucel (hydroxypropylcellulose) (HPC)): 90 % of control

CN(C)C(c1ccccc1)C(CBr)C(=O)c1ccc(Br)cc1 (configuration not stated)
T/C [13]: 93 % of control | T/C (dose: 12.5 mg/kg/injection, schedule: Q04DX003 (ip), vehicle: saline with Tween-80): 96 % of control | T/C [14]: 91 % of control | T/C (dose: 25.0 mg/kg/injection, schedule: Q04DX003 (ip), vehicle: saline with Tween-80): 102 % of control | T/C (dose: 50.0 mg/kg/injection, schedule: Q04DX003 (ip), vehicle: saline with Tween-80): 96 % of control

O=C(c1ccccc1)C(Br)[N+](=O)[O-] (configuration not stated)
T/C [2]: 100 % of control | T/C [6]: 103 % of control | T/C [16]: 96 % of control

Nc1nc2ccccc2c(Cl)c1Cl
T/C [1]: 86 % of control | T/C [3]: 91 % of control | T/C [7]: 91 % of control

O=C1CCCN1C(=O)c1ccccc1
T/C [9]: 101 % of control | T/C [18]: 95 % of control | T/C [20]: 95 % of control

CCCCCCCCCCCCCCNC1=C(OC)C(=O)C(NCCCCCCCCCCCCCC)=C(OC)C1=O
T/C (dose: 100.0 mg/kg/injection, schedule: Q01DX001 (ip), vehicle: other): 95 % of control | T/C (dose: 200.0 mg/kg/injection, schedule: Q01DX001 (ip), vehicle: other): 104 % of control | T/C (dose: 400.0 mg/kg/injection, schedule: Q01DX001 (ip), vehicle: other): 90 % of control

COc1ccc([N+](=O)[O-])c(C=O)c1
T/C [4]: 101 % of control | T/C [5]: 97 % of control | T/C [11]: 98 % of control | T/C [12]: 100 % of control | T/C (dose: 400.0 mg/kg/injection, schedule: Q01DX009 (ip), vehicle: saline): 101 % of control | T/C (dose: 400.0 mg/kg/injection, schedule: Q04DX003 (ip), vehicle: saline): 103 % of control

CC1=CC(c2ccc3c(c2)OCO3)c2c(c3ccccc3oc2=O)O1 (configuration not stated)
T/C (dose: 6.25 mg/kg/injection, schedule: Q01DX009 (ip), vehicle: water): 98 % of control | T/C (dose: 12.5 mg/kg/injection, schedule: Q01DX009 (ip), vehicle: water): 93 % of control | T/C (dose: 25.0 mg/kg/injection, schedule: Q01DX009 (ip), vehicle: water): 100 % of control and 90 % of control | T/C (dose: 50.0 mg/kg/injection, schedule: Q01DX009 (ip), vehicle: water): 86 % of control
